Source: paper PMC11025159 (Journal of Translational Medicine, 2024)
Several values for one entry are separate records, joined by “and”; a condition that tells them apart may be missing. Equal entries are not always repeated. Structures can show the parent of a compound that is named as a salt.

Legend:
[1] = Body weight, biochemical and haematological parameters in DHT-induced AGA mice (0.5% testosterone then topical treatment); assay type: in vivo, C57BL/6J mice; settings: for LYMPH: unit assumed
Protocol: The experiments were performed on C57BL/6 J and Athymic nude mice (NU/J Foxn1^nu) of 6–7 weeks of age obtained from Animal House Facility, CSIR-Indian Institute of Integrative Medicine (IIIM), Jammu, India. […] The animals were provided with ad libitum feed (standard pellet diet) and autoclaved RO water throughout the study. The body weight of mice was measured after seven days before treatment.
(§1) C57BL/6 J mice (male) were obtained from CSIR-IIIM Animal House at 7 weeks of age. We used a DHT-induced AGA mice model for this study. […] At the end of the experiment, skin samples were collected and preserved in 10% neutral buffered formalin for tissue sectioning and staining using haematoxylin and eosin (H&E). The histopathological examinations were performed under the 10× and 40× objectives of light microscope (Magnus, Mx21i).
Every two weeks during the experimental period, mice were anesthetized, and the blood samples were collected into tubes containing heparin sodium to detect the total and differential white blood cells, haemoglobin, red blood cell, platelet count, mean corpuscular haemoglobin, mean corpuscular volume, red blood cell volume, mean platelet volume, and analyzed using an automated haematology analyzer (Model: XT1800i; Make: Sysmex).
Every two weeks during the experimental period, mice and rats were anesthetized, and blood samples were collected into non-heparinized tubes and then centrifuged at 1000 rpm at 4 °C for 10 min to obtain the serum. The biochemical parameters, including total protein, aspartate aminotransferase, alanine aminotransferase, total protein, albumin, total bilirubin, direct bilirubin, glucose, total cholesterol, triglyceride, low-density lipoprotein, high-density lipoprotein, creatinine, and uric acid, were measured using an automatic biochemical analyzer (Model: EM360; Make: Erba Mannheim).

[2] = system: DHT-induced AGA mice; test: Hair regrowth in DHT-induced AGA mice model (topical, 28 days); assay type: in vivo, C57BL/6J mice
Protocol: as §1
Dorsal skin samples from C57BL/6J mice were shaved and collected for histological and molecular analyses on Days 7, 14, 21, and 28. The full-thickness skin tissue was fixed in a 10% neutral buffered formalin solution (Sigma) overnight and subsequently dehydrated for embedding in paraffin. Haematoxylin and eosin (H&E) staining was performed on the skin tissue, and digital photomicrographs were taken from the representative areas using light microscope (Magnus, Mx21i).
The quantification of anagen initiation was assessed by observing changes in the dorsal skin colour of C57BL/6 mice, a phenomenon closely linked to the onset of the anagen phase. Anagen quantification was done by employing threshold analysis on dorsal skin colouration using ImageJ. The darkening of the skin, attributed to melanogenesis, strongly correlates with the progression of anagen. This analysis is visually depicted as a heatmap using GraphPad Prism 9.5 Software.

[3] = system: athymic nude mice (NU/J Foxn1nu); test: Hair growth in athymic nude mice (topical, 28 days); assay type: in vivo; settings: for H&E skin histopathology finding / hair follicle grade: day 28
Protocol: (§2) The groups are as follows: Group 1-Control (untreated), Group 2-Vehicle control, Group 3-tofacitinib citrate (0.8 mg/Kg), Group 4-tofacitinib citrate (0.08 mg/Kg), Group 5-MJ04 (0.08 mg/Kg), Group 6-MJ04 (0.04 mg/Kg), Group 7-MJ04 (0.016 mg/Kg), Group 8-baricitinib (0.1 mg/Kg), Group 9-baricitinib (0.04 mg/Kg), and Group 10-baricitinib (0.02 mg/Kg). At the end of the experiment, skin samples were collected and preserved in 10% neutral buffered formalin for tissue sectioning and staining using haematoxylin and eosin (H&E). The histopathological examinations were performed under the 10× and 40× objectives of light microscope (Magnus, Mx21i), and hair follicles were graded on a scale of 0 to 4 (++++).
The skin samples collected from athymic nude mice (NU/J Foxn1^nu) were preserved in 10% neutral buffered formalin and processed for tissue sectioning. The skin sections (10 µm) of nude mice were stained using haematoxylin and eosin (H&E) and viewed under 10× and 40× objectives of the light microscope (Magnus, Mx21i). The histopathological examination of the samples was performed, and the hair follicles in the skin sections were graded on a scale of 0 to 4 (++++).

[4] = Body weight of athymic nude mice during topical treatment; assay type: in vivo, athymic nude mice (NU/J Foxn1nu); settings: individual mice
Protocol: as §2, with “. The” for “The”, “The histopathological examinations were performed under the 10× and 40× objectives of light microscope (Magnus, Mx21i), and hair follicles were graded on a scale of 0 to 4 (++++).” left out

**Q.** What does the source list for `C[C@@H]1CCN(C(=O)CC#N)C[C@@H]1N(C)c1ncnc2[nH]ccc12` [Tofacitinib, tofacitinib citrate, reference compound]?
**A.** ALP ([1]; Day 21, 0.08 mg/Kg): 198 U/L; ALT/SGPT ([1]; Day 21, 0.08 mg/Kg): 82 U/L; AST/SGOT ([1]; Day 21, 0.08 mg/Kg): 80 U/L; Cholesterol ([1]; Day 21, 0.08 mg/Kg): 216 mg/dL; Creatine ([1]; Day 21, 0.08 mg/Kg): 0.49 mg/dL; HCT ([1]; Day 21, 0.08 mg/Kg): 45%; HDL ([1]; Day 21, 0.08 mg/Kg): 110 mg/dL; LDL ([1]; Day 21, 0.08 mg/Kg): 134 mg/dL; MCHC ([1]; Day 21, 0.08 mg/Kg): 28 g/dL; MCV ([1]; Day 21, 0.08 mg/Kg): 51 fL; NEUT ([1]; Day 21, 0.08 mg/Kg): 20.2%; PLT ([1]; Day 21, 0.08 mg/Kg): 587 103/μl; RBC ([1]; Day 21, 0.08 mg/Kg): 9.2 1012/l; Total protein ([1]; Day 21, 0.08 mg/Kg): 5.0 g/dL; Triglyceride ([1]; Day 21, 0.08 mg/Kg): 141 mg/dL; Urea ([1]; Day 21, 0.08 mg/Kg): 49 mg/dL; WBC ([1]; Day 21, 0.08 mg/Kg): 3.0 103/μl; LYMPH ([1]; Day 21, 0.08 mg/Kg): 78.8%; ALP ([1]; Day 21, 0.8 mg/Kg): 132 U/L; ALT/SGPT ([1]; Day 21, 0.8 mg/Kg): 56 U/L; AST/SGOT ([1]; Day 21, 0.8 mg/Kg): 111 U/L; Cholesterol ([1]; Day 21, 0.8 mg/Kg): 211 mg/dL; Creatine ([1]; Day 21, 0.8 mg/Kg): 0.63 mg/dL; HCT ([1]; Day 21, 0.8 mg/Kg): 42%; HDL ([1]; Day 21, 0.8 mg/Kg): 116 mg/dL; LDL ([1]; Day 21, 0.8 mg/Kg): 126 mg/dL; MCHC ([1]; Day 21, 0.8 mg/Kg): 29 g/dL; MCV ([1]; Day 21, 0.8 mg/Kg): 52 fL; NEUT ([1]; Day 21, 0.8 mg/Kg): 21.5%; PLT ([1]; Day 21, 0.8 mg/Kg): 917 103/μl; RBC ([1]; Day 21, 0.8 mg/Kg): 8.1 1012/l; Total protein ([1]; Day 21, 0.8 mg/Kg): 5.2 g/dL; Triglyceride ([1]; Day 21, 0.8 mg/Kg): 118 mg/dL; Urea ([1]; Day 21, 0.8 mg/Kg): 71 mg/dL; WBC ([1]; Day 21, 0.8 mg/Kg): 1.7 103/μl; LYMPH ([1]; Day 21, 0.8 mg/Kg): 77.9%; ALP ([1]; Day 28, 0.08 mg/Kg): 199 U/L; ALT/SGPT ([1]; Day 28, 0.08 mg/Kg): 177 U/L; AST/SGOT ([1]; Day 28, 0.08 mg/Kg): 136 U/L; Cholesterol ([1]; Day 28, 0.08 mg/Kg): 238 mg/dL; Creatine ([1]; Day 28, 0.08 mg/Kg): 0.13 mg/dL; HCT ([1]; Day 28, 0.08 mg/Kg): 47.0%; HDL ([1]; Day 28, 0.08 mg/Kg): 133 mg/dL; HGB ([1]; Day 28, 0.08 mg/Kg): 14 g/dL; LDL ([1]; Day 28, 0.08 mg/Kg): 111 mg/dL; MCHC ([1]; Day 28, 0.08 mg/Kg): 29.0 g/dL; MCV ([1]; Day 28, 0.08 mg/Kg): 58.0 fL; PLT ([1]; Day 28, 0.08 mg/Kg): 1475 103/μl; RBC ([1]; Day 28, 0.08 mg/Kg): 8.1 106/μl; Total protein ([1]; Day 28, 0.08 mg/Kg): 6.5 g/dL; Triglyceride ([1]; Day 28, 0.08 mg/Kg): 135 mg/dL; Urea ([1]; Day 28, 0.08 mg/Kg): 62 mg/dL; WBC ([1]; Day 28, 0.08 mg/Kg): 6.7 103/μl; ALP ([1]; Day 28, 0.8 mg/Kg): 252 U/L; ALT/SGPT ([1]; Day 28, 0.8 mg/Kg): 134 U/L; AST/SGOT ([1]; Day 28, 0.8 mg/Kg): 125 U/L; Cholesterol ([1]; Day 28, 0.8 mg/Kg): 240 mg/dL; Creatine ([1]; Day 28, 0.8 mg/Kg): 0.12 mg/dL; HCT ([1]; Day 28, 0.8 mg/Kg): 31.0%; HDL ([1]; Day 28, 0.8 mg/Kg): 128 mg/dL; HGB ([1]; Day 28, 0.8 mg/Kg): 11 g/dL; LDL ([1]; Day 28, 0.8 mg/Kg): 113 mg/dL; MCHC ([1]; Day 28, 0.8 mg/Kg): 34.0 g/dL; MCV ([1]; Day 28, 0.8 mg/Kg): 60.0 fL; PLT ([1]; Day 28, 0.8 mg/Kg): 1053 103/μl; RBC ([1]; Day 28, 0.8 mg/Kg): 5.1 106/μl; Total protein ([1]; Day 28, 0.8 mg/Kg): 6.1 g/dL; Triglyceride ([1]; Day 28, 0.8 mg/Kg): 132 mg/dL; Urea ([1]; Day 28, 0.8 mg/Kg): 50 mg/dL; WBC ([1]; Day 28, 0.8 mg/Kg): 5.6 103/μl; H&E skin histopathology finding ([2]; 0.08mg/kg, Days 7, 14, 21, 28): Minimal epidermal thinning with few hair follicles on Days 7 and 14 and increased hair follicles on Days 21 and 28; hair follicle phase (histopathology) ([2]; skin samples days 7, 14, 21, 28): at least in the anagen IIIc-IV phase; entry into the anagen phase ([2]; topical once a day in presence of testosterone): rapid entry into the anagen phase within seven days of treatment; mice displaying intense skin darkening followed by hair growth ([2]; within 10 days of treatment): around 90%; H&E skin histopathology finding ([3]; 0.08 mg/kg): Mild epidermal thickening with the increased number of hair follicles; hair follicle grade ([3]; 0.08 mg/kg): ++++ (graded on a scale ranging from 0 to 4 (++++)); H&E skin histopathology finding ([3]; 0.8 mg/kg): Mild epidermal thickening with the increased number of hair follicles; hair follicle grade ([3]; 0.8 mg/kg): ++++ (graded on a scale ranging from 0 to 4 (++++)); early onset of hair ([3]; topical): 12 days; Weight of nude mice (NU/J Foxn1nu) ([4]; 0.8 mg/kg (first group), DAY 1): 18.1 and 18.4 and 18.7 and 19.3 and 18.2; Weight of nude mice (NU/J Foxn1nu) ([4]; 0.8 mg/kg (first group), DAY 7): 20.1 and 20.5 (2×) and 19.3 and 19.8; Weight of nude mice (NU/J Foxn1nu) ([4]; 0.8 mg/kg (first group), DAY 14): 21.8 and 22.3 and 22.4 and 21.1 and 21.4; Weight of nude mice (NU/J Foxn1nu) ([4]; 0.8 mg/kg (first group), DAY 21): 23.7 and 23.9 and 24.1 and 23.1 and 23.3; Weight of nude mice (NU/J Foxn1nu) ([4]; 0.8 mg/kg (first group), DAY 28): 24.6 and 25.3 and 25.4 and 26.1 and 24.5; Weight of nude mice (NU/J Foxn1nu) ([4]; 0.8 mg/kg (second group so printed), DAY 1): 18.4 and 18.5 (2×) and 18.9 and 19.3; Weight of nude mice (NU/J Foxn1nu) ([4]; 0.8 mg/kg (second group so printed), DAY 7): 19.3 and 19.5 (2×) and 20.6 and 20.7; Weight of nude mice (NU/J Foxn1nu) ([4]; 0.8 mg/kg (second group so printed), DAY 14): 21.1 and 21.4 and 21.3 and 21.8 and 22.1; Weight of nude mice (NU/J Foxn1nu) ([4]; 0.8 mg/kg (second group so printed), DAY 21): 22.6 and 22.9 and 23.4 (2×) and 23.8; Weight of nude mice (NU/J Foxn1nu) ([4]; 0.8 mg/kg (second group so printed), DAY 28): 24.8 and 25.1 and 25.3 and 25.4 and 26.1
